Structures can show the parent of a compound that is named as a salt.
Experiments:
[1] = acute toxicity in rats; type: in vivo; conditions: rat, in vivo, single administration, 12 days observation
Experimental: (§1) Finally, acute toxicity tests were carried out on rats and mice with Compound No. 7 and on rats with Compounds Nos. 13 and 14, the animals being kept under observation for 12 days following one single administration.

[2] = test system: rats; experiment: acute toxicity in rats; type: in vivo; conditions: single administration, 12 days observation
Experimental: as §1

[3] = test system: myocardium; conditions: background; cited from earlier work
[4] = acute toxicity in mice; type: in vivo; conditions: mouse, in vivo, single administration, 12 days observation
Experimental: as §1

[5] = test system: mice; experiment: acute toxicity in mice; type: in vivo; conditions: single administration, 12 days observation
Experimental: as §1

[6] = test system: blood-flow to the myocardium; experiment: arterial coronary blood-flow (blood-flow to the myocardium); type: in vivo, dog; conditions: 10 mg/kg intravenous
Experimental: (1) The capability of Compound No. 7 of increasing the blood-flow to the myocardium and thus stepping up the supply of oxygen to this muscle was determined in accordance with the technique described by R. CHARLIER and J. BAUTHIER in Arzneimittel Forschung "Drug Research" 23, 1305-1311 (1973).
Seven experiments were carried out on seven dogs, using a intravenous injection of 10 mg/kg of Compound No. 7. […] The increase in blood-flow was regular and the return to the control values took place progressively within twenty minutes.

[7] = test system: cardiac output; experiment: cardiac output; type: in vivo; conditions: dog, 10 mg/kg intravenous
Experimental: (§2) The same experimental conditions as above were observed and the following parameters were measured: […]

[8] = test system: stroke volume; experiment: stroke volume (cardiac output divided by heart-beats per minute); type: in vivo; conditions: dog, 10 mg/kg intravenous; for Stroke Volume: initial value 100%
Experimental: The same experimental conditions as above were observed and the following parameters were measured:
Thus, in order to determine the effect of any particular substance on stroke volume, it is sufficient to divide cardiac output by the number of heart-beats per minute.

[9] = test system: cardiac frequency; experiment: cardiac frequency, 60 minutes experiment; type: in vivo; conditions: dog, 10 mg/kg intravenous, during 60 minutes
Experimental: as §2

[10] = test system: oxygen consumption of the myocardium; experiment: oxygen consumption of the myocardium (rate-pressure product); type: in vivo; conditions: anaesthetized dog, 10 mg/kg intravenous, 100 before administration
Experimental: This comparative trial aimed at determining the respective capabilities of the two substances to reduce the oxygen consumption of the myocardium. This property was measured by the indirect method known as the "rate-pressure product" which is a widely used and accurate haemodynamic index of myocardial oxygen consumption.
This method requires two cardiovascular parameters to be measured simultaneously, namely the mean aortic systolic blood-pressure and the heart-rate.
The "rate-pressure product" is obtained by multiplying the number of heart beats per minute by the mean aortic systolic blood-pressure. This provides an index of the total amount of oxygen used by the myocardium over a period of one minute. As it thus represents an accurate indication of the oxygen consumption of the myocardium, any lowering of the "rate-pressure product" indicates a corresponding drop in the oxygen consumption of the myocardium.
These tests were carried out on dogs which had been previously anaesthetized with sodium pentobarbital (30 mg/kg by intravenous route).
In both cases, the injection of 10 mg/kg took 2 minutes to administer.

CCCCc1oc2ccccc2c1C(=O)c1ccc(N(CCCN(CCCC)CCCC)S(=O)(=O)c2ccc(OC)cc2)cc1 [Compound 14, 2-n-butyl-3-[N-(3-di-n-butylaminopropyl)-N-(4-methoxy-benzenesulfonyl)-4-amino-benzoyl]-benzofuran]
LD50 at 288 h ([1]; ip, intraperitoneal): 1000 mg/kg | LD0 ([2]; intraperitoneal): 200 mg/kg | LD95 ([2]; intraperitoneal): 3000 mg/kg

CC(C)NCC(O)COc1cccc2ccccc12 (racemic) [prapranolol]
anti-adrenergic effect [3]: exert an anti-adrenergic effect | cardiac frequency [3]: considerably reduce cardiac frequency | cardiac functioning [3]: depress cardiac functioning | oxygen requirements of the myocardium [3]: diminish the oxygen requirements of the myocardium | supply of oxygen to the myocardium [3]: lower the supply of oxygen to the myocardium

CC(=O)Nc1ccc(OCC(O)CNC(C)C)cc1 (stereo not shown) [practolol]
anti-adrenergic effect [3]: exert an anti-adrenergic effect | cardiac frequency [3]: considerably reduce cardiac frequency | cardiac functioning [3]: depress cardiac functioning | oxygen requirements of the myocardium [3]: diminish the oxygen requirements of the myocardium | supply of oxygen to the myocardium [3]: lower the supply of oxygen to the myocardium

CCCCc1oc2ccccc2c1C(=O)c1ccc(N(CCCN(CCC)CCC)S(=O)(=O)c2ccc([N+](=O)[O-])cc2)cc1 [Compound 13, 2-n-butyl-3-[N-(3-di-n-propylaminopropyl)-N-(4-nitro-benzenesulfonyl)-4-amino-benzoyl]-benzofuran]
LD50 at 288 h ([1]; ip, intraperitoneal): 1000 mg/kg | LD0 ([2]; intraperitoneal): 180 mg/kg | LD95 ([2]; intraperitoneal): 3000 mg/kg

CCCCc1oc2ccccc2c1C(=O)c1ccc(N(CCN(C)C)S(=O)(=O)c2ccc(C)cc2)cc1 [Compound 7, 2-n-butyl-3-[N-(2-dimethylaminoethyl)-N-(4-methyl-benzenesulfonyl)-4-amino-benzoyl]-benzofuran]
LD50 at 288 h ([4]; ip, intraperitoneal): 275 mg/kg | LD50 at 288 h ([4]; po, intragastric): 2100 mg/kg | LD0 ([5]; intragastric): 550 mg/kg | LD95 ([5]; intragastric): 5000 mg/kg | LD0 ([5]; intraperitoneal): 50 mg/kg | LD95 ([5]; intraperitoneal): 900 mg/kg | return of blood-flow to the control values ([6]; dog, hydrochloride): twenty | supply of oxygen to the myocardium ([6]; dog, conclusion in words): increases to a very marked degree the supply of oxygen to the myocardium | maximal increase in blood-flow to the myocardium ([6]; seven dogs, after 3 minutes, hydrochloride): about 94% | LD50 at 288 h ([1]; ip, intraperitoneal): 600 mg/kg | LD50 at 288 h ([1]; po, intragastric): 1600 mg/kg | LD0 ([2]; intragastric): 800 mg/kg | LD95 ([2]; intragastric): 2400 mg/kg | LD0 ([2]; intraperitoneal): 160 mg/kg | LD95 ([2]; intraperitoneal): 1400 mg/kg | return of cardiac output to the control value [7]: ≤ 20 min | increase in cardiac output ([7]; after 2.5 minutes): 70% | increase in cardiac output ([7]; after 5 minutes): 50% | increase in stroke volume ([8]; during the first 5 minutes): above 100% | Stroke Volume ([8]; 2.5 min): 213% | Stroke Volume ([8]; 5 min): 200% | Stroke Volume ([8]; 10 min): 172% | Stroke Volume ([8]; 15 min): 152% | Stroke Volume ([8]; 20 min): 143% | Stroke Volume ([8]; 25 min): 136% | Stroke Volume ([8]; 30 min): 137% | Stroke Volume ([8]; 35 min): 138% | Stroke Volume ([8]; 40 min): 127% | Stroke Volume ([8]; 45 min): 127% | Stroke Volume ([8]; 50 min): 130% | Stroke Volume ([8]; 55 min): 120% | Stroke Volume ([8]; 60 min): 117% | performance of the cardiac muscle ([8]; conclusion in words): does not depress the performance of the cardiac muscle, and even stimulates this extremely important factor of cardiac functioning | cardiac frequency [9]: dropped to a highly significant degree during 60 minutes | Oxygen Consumption (rate-pressure product) ([10]; 2.5 minutes after): 54.4 | Oxygen Consumption (rate-pressure product) ([10]; 5 minutes after): 57.8 | Oxygen Consumption (rate-pressure product) ([10]; 10 minutes after): 63.5 | Oxygen Consumption (rate-pressure product) ([10]; 15 minutes after): 64.8 | Oxygen Consumption (rate-pressure product) ([10]; 20 minutes after): 64.8 | Oxygen Consumption (rate-pressure product) ([10]; 25 minutes after): 65.2 | Oxygen Consumption (rate-pressure product) ([10]; 30 minutes after): 65.6 | Oxygen Consumption (rate-pressure product) ([10]; 35 minutes after): 66.0 | Oxygen Consumption (rate-pressure product) ([10]; 40 minutes after): 66.8 | Oxygen Consumption (rate-pressure product) ([10]; 45 minutes after): 67.2 | Oxygen Consumption (rate-pressure product) ([10]; 50 minutes after): 67.6 | Oxygen Consumption (rate-pressure product) ([10]; 55 minutes after): 68.9 | Oxygen Consumption (rate-pressure product) ([10]; 60 minutes after): 68.9

C1CCC(C(CC2CCCCN2)C2CCCCC2)CC1 (stereo not shown) [perhexiline maleate]
anti-adrenergic effect [3]: does not possess any anti-adrenergic properties | cardiac frequency [3]: diminishing cardiac frequency | cardiac functioning [3]: does not appear to exert a depressant effect upon cardiac functioning | oxygen requirements of the myocardium [3]: reducing the oxygen requirements of the myocardium | supply of oxygen to the myocardium [3]: increasing the supply of oxygen to the myocardium

CC(Cc1ccccc1)NCCC(c1ccccc1)c1ccccc1 (stereo not shown) [prenylamine]
anti-adrenergic effect [3]: do not inhibit the cardio-vascular reactions to adrenergic stimulants | cardiac functioning [3]: do not depress the cardiac function | oxygen requirements of the myocardium [3]: do not reduce the oxygen requirements of the myocardium | supply of oxygen to the myocardium [3]: increase the supply of oxygen to the myocardium

OCCN(CCO)c1nc(N2CCCCC2)c2nc(N(CCO)CCO)nc(N3CCCCC3)c2n1 [dipyridamole]
anti-adrenergic effect [3]: do not inhibit the cardio-vascular reactions to adrenergic stimulants | cardiac functioning [3]: do not depress the cardiac function | oxygen requirements of the myocardium [3]: do not reduce the oxygen requirements of the myocardium | supply of oxygen to the myocardium [3]: increase the supply of oxygen to the myocardium

From patent US4117151A, “Therapeutic sulfonamides” (priority 1976, dated 1978)
